Read-outs that look alike come from different tables or passages of the source.

For data set [1], the target named is cdk4/D (Homo sapiens, UniProt P11802). Kind of data set: Cyclin-Dependent Kinase 4 (cdk4) Assay. Type of data set: biochemical.
Data set [2] deals with Cdk5/p25 (Homo sapiens, UniProt Q00535). Kind of data set: Cyclin-Dependent Kinase 5 (cdk5) Assay. Type of data set: biochemical. How it is done: Cyclin-Dependent Kinase 5 (cdk5) Assay
Enzyme assays for IC50 determinations and kinetic evaluation were performed in 96-well filter plates (Millipore MAPH NOB 10). […] All components except histone and ATP were added to wells, and the plate was placed on a shaker for 5 minutes. The reaction was started by adding histone and [^32P]ATP, and the plate was shaken at 30° C. for 45 minutes. The reaction was terminated by addition of 0.1 mL of 150 mM phosphoric acid. The plate was kept at 4° C. for 30 minutes to allow substrate to precipitate. The wells were then washed three times with 0.2 mL of 75 mM phosphoric acid and ^32P incorporation was determined with a beta plate counter (Wallac Inc, Gaithersburg, Md.).

The target of data set [3] is cdk2/cyclinE (Homo sapiens, UniProt P24941). Kind of data set: Cyclin-Dependent Kinase Assay cdk2/cyclinE.
Protocol: Cyclin-Dependent Kinase Assays (cdk2/cyclinE, cdk2/cyclinA, cdc2/cyclinB)
All components except the ATP were added to the wells, and the plate was placed on a plate mixer for 2 minutes. The reaction was begun by addition of [^32P]ATP, and the plate was incubated at 25° C. for 15 minutes. The reaction was terminated by addition of 0.1 mL of 20% TCA. The plate was kept at 4° C. for at least 1 hour to allow the substrate to precipitate. The wells were then washed five times with 0.2 mL of 10% TCA and ^32p incorporation determined with a beta plate counter (Wallac Inc., Gaithersburg, Md.).
The target in data set [4] is cdk2/cyclinA (Homo sapiens, UniProt P24941). Kind of data set: Cyclin-Dependent Kinase Assay cdk2/cyclinA.
The target in data set [5] is cdc2/cyclinB (Homo sapiens, UniProt P06493). Kind of data set: Cyclin-Dependent Kinase Assay cdc2/cyclinB.
Chain of cdc2/cyclinB (P06493 whole entry): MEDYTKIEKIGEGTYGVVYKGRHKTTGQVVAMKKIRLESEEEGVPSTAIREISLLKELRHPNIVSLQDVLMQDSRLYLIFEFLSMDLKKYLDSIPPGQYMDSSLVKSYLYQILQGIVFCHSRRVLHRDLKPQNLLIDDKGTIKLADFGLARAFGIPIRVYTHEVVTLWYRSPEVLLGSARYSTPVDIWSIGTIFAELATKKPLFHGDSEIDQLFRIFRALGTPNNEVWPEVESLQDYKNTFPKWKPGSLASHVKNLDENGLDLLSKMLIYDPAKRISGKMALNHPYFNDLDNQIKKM
Chain of cdc2/cyclinB (P14635 whole entry, further chain): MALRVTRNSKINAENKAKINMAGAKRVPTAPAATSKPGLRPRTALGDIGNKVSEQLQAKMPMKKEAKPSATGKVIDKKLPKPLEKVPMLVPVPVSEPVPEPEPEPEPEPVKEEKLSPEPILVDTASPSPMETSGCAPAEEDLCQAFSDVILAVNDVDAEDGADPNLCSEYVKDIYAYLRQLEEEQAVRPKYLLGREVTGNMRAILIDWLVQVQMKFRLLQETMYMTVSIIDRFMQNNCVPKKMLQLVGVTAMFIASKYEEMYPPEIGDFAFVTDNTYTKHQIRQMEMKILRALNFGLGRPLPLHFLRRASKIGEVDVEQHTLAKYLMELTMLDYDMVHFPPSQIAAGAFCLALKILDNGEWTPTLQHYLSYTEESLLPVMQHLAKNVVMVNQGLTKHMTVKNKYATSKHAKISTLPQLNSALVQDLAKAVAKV

Chain of cdk4/D (P11802 whole entry): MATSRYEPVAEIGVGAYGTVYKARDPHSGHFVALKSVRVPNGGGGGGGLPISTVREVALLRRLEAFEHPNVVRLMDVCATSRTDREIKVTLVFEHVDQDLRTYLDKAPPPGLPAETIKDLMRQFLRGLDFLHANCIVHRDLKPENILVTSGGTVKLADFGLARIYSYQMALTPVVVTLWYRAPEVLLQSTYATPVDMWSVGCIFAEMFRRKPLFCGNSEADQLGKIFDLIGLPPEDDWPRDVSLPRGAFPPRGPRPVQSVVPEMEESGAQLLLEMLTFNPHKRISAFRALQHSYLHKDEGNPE
Chain of cdk4/D (P24385 whole entry, further chain): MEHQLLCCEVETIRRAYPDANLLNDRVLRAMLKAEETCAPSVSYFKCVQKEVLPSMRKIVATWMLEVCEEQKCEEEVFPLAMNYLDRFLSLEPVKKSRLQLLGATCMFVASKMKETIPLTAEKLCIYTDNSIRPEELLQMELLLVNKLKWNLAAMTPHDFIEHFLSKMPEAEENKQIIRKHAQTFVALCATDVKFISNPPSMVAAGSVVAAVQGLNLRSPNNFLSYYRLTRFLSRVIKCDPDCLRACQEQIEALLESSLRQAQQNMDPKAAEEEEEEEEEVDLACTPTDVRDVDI

As for “8-Ethyl-2-(pyrimidin-4-ylamino)-8H-pyrido[2,3-d]pyrimidin-7-one [Example 50]”, the IC50 is 2000 nM in data set [1] (Table 1, read-out: cdk4/D IC50) and 27 nM in data set [2] (Table 1).
Regarding “8-Isopropyl-2-(4-methoxy-phenylamino)-8H-pyrido[2,3-d]pyrimidin-7-one [Example 622]”, the IC50 in data set [1] (Table 3, read-out: Cdk4 IC50) was found to be 4080 nM; in data set [2] (Table 3) it was 30 nM; in data set [3] (read-out: Cdk2/E IC50, Table 3), 540 nM; in data set [4] (read-out: Cdk2/A IC50, Table 3) it was 392 nM.
One may read the melting point as the temperature of the solid-liquid transition. The molecule `O=c1ccc2cnc(Nc3ccc(N4CCCCC4)cc3)nc2n1C1CCOC1` (racemic) [Example 200, 2-(4-Piperidin-1-yl-phenylamino)-8-(tetrahydro-furan-3-yl)-8H-pyrido[2,3-d]pyrimidin-7-one] showed a melting point of 181 to 182 °C. The IC50 in data set [1] (Table 1, read-out: cdk4/D IC50) came to 219 nM. The molecule also yielded an IC50 in data set [3] (cdk2/E IC50, Table 1) of 1900 nM. Further, the IC50 in data set [4] (cdk2/A IC50, Table 1) was found to be 285 nM. This molecule returned an IC50 in data set [5] of 4340 nM.
Molecule `CCOC(=O)C=Cc1cnc(Nc2ccccc2)nc1N` [Example 28, Ethyl 3-(4-Amino-2-phenylamino-pyrimidin-5-yl)acrylate] returned a melting point of 190 to 192 °C. Moreover, the IC50 in data set [1] (Table 2, Formula II compounds, read-out: cdk4 IC50) is 65000 nM.
For the molecule `O=c1ccc2cnc(Nc3ccccc3)nc2[nH]1` [Example 32, 2-Phenylamino-8H-pyrido[2,3-d]pyrimidin-7-one], the IC50 in data set [2] (Table 1) was found to be 1430 nM.
Regarding `COC(=O)Cn1c(=O)ccc2cnc(Nc3ccccc3)nc21` [Example 36], the melting point fell in the range of 232 to 233 °C. The IC50 in data set [1] (Table 1, read-out: cdk4/D IC50) is 31000 nM.
On to `CC(C)n1c(=O)ccc2cnc(Nc3ccc(N4CCN(C)CC4)cc3)nc21` [Example 60, 8-Isopropyl-2-[4-(4-methylpiperazin-1-yl)-phenylamino]-8H-pyrido[2,3-d]-pyrimidin-7-one], for which the IC50 in data set [2] (Table 1) worked out at 17 nM.
`O=c1ccc2cnc(Nc3ccccc3)nc2n1-c1ccccc1` [Example 101, 2-Phenylamino-8-phenyl-8H-pyrido[2,3-d]pyrimidin-7-one] registered an IC50 in data set [2] (Table 1) of 165 nM.
`CCN(CC)CCOc1ccc(Nc2ncc3ccc(=O)n(CCOCc4ccccc4)c3n2)cc1` [Example 139] yielded a melting point of 95 to 97 °C. For the same molecule, the IC50 in data set [1] (Table 1, read-out: cdk4/D IC50) amounted to 2860 nM. In data set [3] (cdk2/E IC50, Table 1), this molecule displayed an IC50 of 2630 nM.
For the molecule `O=c1ccc2cnc(Nc3ccc(F)cc3)nc2n1C1CCCCC1` [Example 148, 8-Cyclohexyl-2-(4-fluoro-phenylamino)-8H-pyrido[2,3-d]pyrimidin-7-one], the melting point lay within 209 to 211 °C. Further, in data set [1] (Table 1, read-out: cdk4/D IC50), the IC50 stood at 197 nM. For the same molecule, the IC50 in data set [3] (cdk2/E IC50, Table 1) was 53.5 nM. In addition, in data set [4] (cdk2/A IC50, Table 1), the IC50 came out at 77.5 nM. The same molecule came in with an IC50 in data set [5] of 1820 nM.
For the molecule `O=c1ccc2cnc(Nc3ccccc3)nc2n1CC1CCCCC1` [Example 182, 8-Cyclohexylmethyl-2-phenylamino-8H-pyrido[2,3-d]pyrimidin-7-one], the melting point is 230 to 231 °C.
The same measure, in the same setting: with `O=c1ccc2cnc(Nc3ccc(N4CCCCC4)cc3)nc2n1CC1CCCCC1` [Example 183, 8-Cyclohexylmethyl-2-(4-piperidin-1-yl-phenylamino)-8H-pyrido[2,3-d]pyrimidin-7-one] the figure was 212 to 213 °C; with `O=c1ccc2cnc(Nc3ccc(F)cc3)nc2n1C1CCCCCC1` [Example 184, 8-Cycloheptyl-2-(4-fluoro-phenylamino)-8H-pyrido[2,3-d]pyrimidin-7-one], 198 to 199 °C.
Still for that read-out and setting: the result for `O=c1ccc2cnc(Nc3ccc(-n4cccn4)cc3)nc2n1C1CCCC1` [Example 191, 8-Cyclopentyl-2-(4-pyrazol-1-yl-phenylamino)-8H-pyrido[2,3-d]pyrimidin-7-one] reads 197 to 198 °C.
On the same count and under the same terms, with `O=c1ccc2cnc(Nc3cccc(N4CCCCC4)c3)nc2n1C1CCCCCC1` [Example 201, 8-Cycloheptyl-2-(3-piperidin-1-yl-phenylamino)-8H-pyrido[2,3-d]pyrimidin-7-one] the figure was 123 to 124 °C; with `O=c1ccc2cnc(Nc3ccc(N4CCCC(O)C4)cc3)nc2n1C1CCCC1` (stereo not shown) [Example 206, 8-Cyclopentyl-2-[4-(3-hydroxy-piperidin-1-yl)-phenylamino]-8H-pyrido[2,3-d]pyrimidin-7-one], 178 to 179 °C; with `O=c1ccc2cnc(Nc3ccc(N4CCCCC4CO)cc3)nc2n1C1CCCC1` (stereo not shown) [Example 207, 8-Cyclopentyl-2-[4-(2-hydroxymethyl-piperidin-1-yl)-phenylamino]-8H-pyrido[2,3-d]pyrimidin-7-one], 135 to 136 °C.
Take `O=c1ccc2cnc(Nc3cccc(OC(F)(F)C(F)F)c3)nc2n1C1CC2CCC1C2` (stereo not shown) [Example 213, 8-Bicyclo[2.2.1]hept-2-yl-2-[3-(1,1,2,2-tetrafluoro-ethoxy)-phenylamino]-8H-pyrido[2,3-d]pyrimidin-7-one]: the melting point was 192 °C.
`O=c1ccc2cnc(Nc3ccc(N4CCC(CCO)CC4)cc3)nc2n1C1CCCCC1` [Example 216, 8-Cyclohexyl-2-{4-[4-(2-hydroxy-ethyl)-piperidin-1-yl]-phenylamino}-8H-pyrido[2,3-d]pyrimidin-7-one] came in with a melting point of 236 to 237 °C.
In turn, `O=c1ccc2cnc(Nc3ccc(N4CCC(CCCN5CCOCC5)CC4)cc3)nc2n1C1CC2CCC1C2` (stereo not shown) [Example 217, 8-Bicyclo[2.2.1]hept-2-yl-2-[4-[4-(3-morpholin-4-yl-propyl)-piperidin-1-yl]-phenylamino]-8H-pyrido[2,3-d]pyrimidin-7-one] registered a melting point of 185 to 186 °C.
Regarding `O=c1ccc2cnc(Nc3ccc(-n4cccn4)cc3)nc2n1C1CC2CCC1C2` (stereo not shown) [Example 218, 8-Bicyclo[2.2.1]hept-2-yl-2-(4-pyrazol-1-yl-phenylamino)-8H-pyrido[2,3-d]pyrimidin-7-one], the melting point lay within 234 to 235 °C.
In the case of `COc1ccc(CNc2ncc3ccc(=O)n(C4CCCCC4)c3n2)cc1` [Example 225, 8-Cyclohexyl-2-(4-methoxy-benzylamino)-8H-pyrido[2,3-d]pyrimidin-7-one], the melting point came out at 165 °C.
Same read-out and setting: the result for `Nc1ncc2ccc(=O)n(C3CCCCC3)c2n1` [Example 226, 2-Amino-8-cyclohexyl-8H-pyrido[2,3-d]pyrimidin-7-one] reads 155 °C.
Still for that read-out and setting: with `CN(C)CCCN1CCN(c2ccc(Nc3ncc4ccc(=O)n(C5CC6CCC5C6)c4n3)cc2)CC1` (stereo not shown) [Example 230, 8-Bicyclo[2.2.1]hept-2-yl-2-{4-[4-(3-dimethylamino-propyl)-piperazin-1-yl]-phenylamino}-8H-pyrido[2,3-d]pyrimidin-7-one] the figure was 212 to 213 °C.
The molecule `O=c1ccc2cnc(Nc3ccc(N4CCCCC4)cc3)nc2n1C1CCCC1O` (stereo not shown) [Example 242, 8-(2-Hydroxy-cyclopentyl)-2-(4-piperidin-1-yl-phenylamino)-8H-pyrido[2,3-d]pyrimidin-7-one] yielded a melting point of 230 to 232 °C.
In turn, `CCOC(=O)N1CCC(n2c(=O)ccc3cnc(Nc4ccc(N5CCCCC5)cc4)nc32)CC1` [Example 246, 4-[7-Oxo-2-(4-piperidin-1-yl-phenylamino)-7H-pyrido[2,3-d]pyrimidin-8-yl]-piperidine-1-carboxylic acid ethyl ester] displayed a melting point of 231 to 233 °C.
Take `CC(C)n1c(=O)ccc2cnc(N)nc21` [Example 257, 2-Amino-8-isopropyl-8H-pyrido[2,3-d]pyrimidin-7-one]: the melting point stood at 153 °C.
Regarding `O=c1ccc2cnc(Nc3ccc(N4CCC(CCN5CCOCC5)CC4)cc3)nc2n1C1CCCCC1` [Example 258], the melting point was 245 to 246 °C. The IC50 in data set [1] (Table 1, read-out: cdk4/D IC50) is 7.5 nM. Besides, in data set [3] (cdk2/E IC50, Table 1), the IC50 came out at 200 nM. The molecule further returned an IC50 in data set [4] (cdk2/A IC50, Table 1) of 73.3 nM. For the same molecule, in data set [5], the IC50 came out at 599 nM.
Molecule `O=c1ccc2cnc(Nc3ccc(N4CCC(CCN5CCOCC5)CC4)cc3)nc2n1C1CC2CCC1C2` (stereo not shown) [Example 259, 8-Bicyclo[2.2.1]hept-2-yl-2-[4-[4-(2-morpholin-4-yl-ethyl)-piperidin-1-yl]-phenylamino]-8H-pyrido[2,3-d]pyrimidin-7-one] had a melting point of 223 to 224 °C.
The molecule `CC(C)n1c(=O)ccc2cnc(Nc3ccc(N4CCC(CCCN5CCOCC5)CC4)cc3)nc21` [Example 260, 8-Isopropyl-2-{4-[4-(3-morpholin-4-yl-propyl)-piperidin-1-yl]-phenylamino}-8H-pyrido[2,3-d]pyrimidin-7-one] showed a melting point of 195 to 196 °C.
The same measure, in the same setting: the result for `O=c1ccc2cnc(Nc3ccc(N4CCCC(CCCN5CCOCC5)C4)cc3)nc2n1C1CC2CCC1C2` (stereo not shown) [Example 262, 8-Bicyclo[2.2.1]hept-2-yl-2-{4-[3-(3-morpholin-4-yl-propyl)-piperidin-1-yl]-phenylamino}-8H-pyrido[2,3-d]pyrimidin-7-one] reads 156 to 157 °C; that for `O=c1ccc2cnc(Nc3ccc(N4CCCC(CN5CCOCC5)C4)cc3)nc2n1C1CC2CCC1C2` (stereo not shown) [Example 263, 8-Bicyclo[2.2.1]hept-2-yl-2-[4-(3-morpholin-4-ylmethyl-piperidin-1-yl)-phenylamino]-8H-pyrido[2,3-d]pyrimidin-7-one], 155 to 157 °C.
